Measurements reported in article PMC3486708 (Journal of medicinal chemistry, 2012).

Assays:
[1] = test system: MC65 cells; experiment: Toxicity to MC65 cells in the presence of tetracycline; format: cell-based; details: median toxic concentration to MC65 cells, presence of TC
[2] = test system: ABCA1; experiment: ABCA1 gene expression in Huh-7 cells; format: cell-based, human; details: 24 h, compared to mock-treated cells
[3] = test system: MC65 cells; experiment: MC65 cell protection assay; format: cell-based; details: for protection of MC65 cell death (in words): MC65 cells, absence of TC

| Compound | TD50 [1] [µM] | expression of ABCA1 [2] | protection of MC65 cell death ([3]; up to 50 μM) | protection of MC65 cell death (in words) [3] |
| --- | --- | --- | --- | --- |
| Cc1cc2c(c(=O)o1)C=C1CC[C@H](C(C)CNCc3ccc(O)cc3)C[C@@H]1O2 (mixture of isomers) [Compound 2b, (5aS,7S)-3-Methyl-7-[(1R) and (1S)1-(4-hydroxybenzylamino)propan-2-yl]-1H,7H-5a,6,8,9-tetrahydro-1-oxopyrano[4,3-b][1]benzopyran] | 49.3 ± 0.127 | significantly increased | – | – |
| CCCCCCCCCCC(C)(C)C(=O)Nc1c(OC)cc(OC)cc1OC [CI-976, reference compound] | – | significantly increased | inactive | – |
| Cc1cc2c(c(=O)o1)C=C1CC[C@H](C(C)Cn3cnc(N)c4ncnc3-4)C[C@@H]1O2 (stereo partly shown) [Compound 1] | 39.0 ± 1.12 | significantly increased | – | – |
| Cc1cc2c(c(=O)o1)C=C1CC[C@H](C(C)CNCc3ccc(CO)cc3)C[C@@H]1O2 (stereo partly shown) [Compound 2e] | >50 | – | – | – |
| Cc1cc2c(c(=O)o1)C=C1CC[C@H](C(C)CNCc3ccc(C#N)cc3)C[C@@H]1O2 (stereo partly shown) [Compound 2i] | – | – | – | abolishes the activity |
| Cc1cc2c(c(=O)o1)C=C1CC[C@H](C(C)CNCc3ccc(O)c(F)c3)C[C@@H]1O2 (stereo partly shown) [Compound 3f] | >50 | – | – | – |
| Cc1cc2c(c(=O)o1)C=C1CC[C@H](C(C)CNCc3ccc(O)c4ccccc34)C[C@@H]1O2 (stereo partly shown) [Compound 4a] | 13.7 ± 0.704 | significantly increased | – | – |
| CC(=O)Oc1ccccc1C(=O)NCC(C)[C@H]1CCC2=Cc3c(cc(C)oc3=O)O[C@H]2C1 (stereo partly shown) [Compound 6a] | – | – | – | inactive |
| Cc1cc2c(c(=O)o1)C=C1CC[C@H](C(C)CNC(=O)c3ccccc3O)C[C@@H]1O2 (stereo partly shown) [Compound 6b] | – | – | – | poor activity |
